The values that follow are results of earlier work, collected in patent US6558710B1, “Topical zinc compositions and methods of use” (priority 1999, dated 2003).

Read-outs that look alike come from different tables or passages of the source.

For one series, the system named is HIV. The settings on record: 1-1.5% zinc acetate, 2 hours, in vitro (U.S. Pat. No. 5,545,673).
For series [1] the following is noted: solutions of 0.2-1%, applied circumorally.

In the case of `[O]=[Zn]` [zinc oxide], the dermal irritancy result (20% suspension) is recorded as “not overtly irritant”. In addition, where the note is “in comparison to the more irritating and more water-soluble zinc salts”, the “stimulation of epidermal healing” value was “only marginally effective”.
`CC(=O)[O-].CC(=O)[O-].[Zn+2]` [zinc acetate]: the dermal irritancy result (20% aqueous) is on record as “slightly less irritant”. The HIV infectivity entry with HIV was “reduced or completely eliminated”.
In the case of `O=S(=O)([O-])[O-].[Zn+2]` [zinc sulfate], the dermal irritancy entry (1% aqueous) is given as “not overtly irritant”. For the same compound, the “irritation and side effects” value in series [1] is “severe irritation, unpleasant dryness and stimulate the emetic reflex”.
`[Cl-].[Cl-].[Zn+2]` [zinc chloride]: under “1% aqueous”, the dermal irritancy result is reported as “severely irritant”.
For zinc pyrithione, the dermal irritancy entry (20% suspension) is “not overtly irritant”.
